Read-outs that look alike come from different tables or passages of the source.

We go through three molecules from US10370359B2, “Process for the preparation of crystalline dexlansoprazole” (DIPHARMA FRANCIS S.r.l., priority 2017, dated 2019).

Series [1] is classed as physicochemical. Particulars: for purity of the samples, 24 h: after 24 hours at 70° C. in an oven; for purity of the samples, 24 h / purity of the samples, 48 h / purity of the samples, 72 h / purity of the samples, 0 h: HPLC at 285 nm; for purity of the samples, 48 h: after 48 hours at 70° C. in an oven; for purity of the samples, 72 h: after 72 hours at 70° C. in an oven; for purity of the samples, 0 h: time 0, before heating at 70° C. The protocol: The samples of crystalline anhydrous dexlansoprazole prepared according to the method of the present invention (new method) and those made according to the method of U.S. Pat. No. 8,314,241 (present Example 4) are heated in an oven at 70° C.
After 24, 48 and 72 hours, samples are taken and analyzed by HPLC at a wavelength of 285 nm.

Series [2] is described as follows: Thermal stability of dexlansoprazole in solution (dispersion), HPLC. It counts as physicochemical. The following applies: dispersion 14 hours at 45° C., distillation at 50° C. at reduced pressure, further 14 hours at 45° C.; not present at time 0. The protocol:
In order to establish the thermal stability of dexlansoprazole the dispersion of dexlansoprazole was heated for 14 hours at 45° C., then a distillation at 50° C. at reduced pressure was performed and finally the dispersion was kept for further 14 hours at 45° C.
The color of the resulting dispersion turned into a slight yellow.

Setting [3] is: listed as crystalline anhydrous dexlansoprazole prepared with the procedure of the present.

Consider `Cc1c(OCC(F)(F)F)ccnc1C[S@@+]([O-])c1nc2ccccc2[nH]1` [U.S. Pat. No. 8,314,241], for which the “increase of the contents of all the impurities” value in series [1] (after 24 hours at 70° C.) is “more than 0.2%”. Moreover, in series [1], the “purity of the samples, 24 h” value is 99.28%; the “purity of the samples, 48 h” value worked out at 99.09%; the “purity of the samples, 72 h” value is listed as 98.91%; the “purity of the samples, 0 h” value amounted to 99.51%. Also, the “increase of the contents of all the impurities” value in series [1] (after 72 hours at 70° C.) is 0.60%.

With `Cc1c(OCC(F)(F)F)ccnc1C[S@@+]([O-])c1nc2ccccc2[nH]1` [dexlansoprazole], in series [2], the “content of impurity of formula (I) formed” value is given as 0.03%.

Take `Cc1c(OCC(F)(F)F)ccnc1C[S@@+]([O-])c1nc2ccccc2[nH]1` [Method of the present invention]: the “decrease of the concentration of crystalline anhydrous dexlansoprazole” value in series [1] (70° C. for 72 hours, Area % HPLC at 285 nm) is “less than 0.1%”. For the same molecule, in series [1], the “purity of the samples, 24 h” value is recorded as 99.95%; the “purity of the samples, 48 h” value is listed as 99.93%; the “purity of the samples, 72 h” value was determined as 99.93%; the “purity of the samples, 0 h” value was 99.96%. Also, in series [1] (setting [3]), the “purity of the samples, 72 h” value is 99.93% and the “purity of the samples, 0 h” value was 99.96%.
